# Reference: paper PMC6752957, “Beta-defensins and analogs in Helicobacter pylori infections: mRNA expression levels, DNA methylation, and antibacterial activity” (PLoS ONE, 2019)
# No end group written: not given here.
# How the values were obtained:
# [1] = cited from earlier work; for antimicrobial activity at high NaCl concentrations: background statement of the introduction
# Description: Defensins exert their killing activity against bacteria, yeasts, fungi, and viruses. The activity of antimicrobial peptides involves the initial electrostatic binding to the cell membrane of microorganisms and subsequent incorporation into the membrane. This antimicrobial action induces damage or even destruction of the microbial cell membrane via pore formation. […] We previously reported the killing activity of β-defensin ...
# [2] = system: H. pylori (ATCC49503 (tox+ strain 60190)); test: CFU assay of antimicrobial activity against H. pylori, with salt dependence; assay type: cell-based, Helicobacter pylori
# Procedure: CFU assays of the antimicrobial activities of HBDs against H. pylori (ATCC49503 (tox+ strain 60190); American Type Culture Collection, ATCC) were performed. The toxin-producing H. pylori strain was revived from frozen stocks by seeding on a blood agar plate (7% horse blood) at 37°C for 3 days in microaerophilic conditions (O2:10% and […]) generated with Anaeropack Campylo (Mitsubishi Gas Chemicals Corp.). Bacteria harvested from the plates were suspended in 200 ml of brain heart infusion broth (10% fetal calf serum) and grown in liquid culture at 37°C for three days while shaking in a monitored microaerophilic atmosphere.
# H. pylori was incubated with HBDs for two hours at 37°C. Two concentrations of peptides (2.5 μM and 12.5 μM) were used. For the salt dependence assay, 0, 50, 100, and 200 mM concentrations of NaCl were added in the incubation buffer as previously described. Each assay was done in triplicate.
# Antimicrobial activity of HBD2-4 and the analogs 3N and 3NI was evaluated on H. pylori, cultured on HP agar for 4 d after a […] pre-incubation with or without chemically synthesized HBD-2-4 and 3N and 3NI analogs. The two peptide sequences are derived from HBD1 and HBD3. 3N analog is the HBD3 sequence without the N-terminal domain that HBD1 lacks.
# We evaluated two concentrations of every peptide (2.5 and 12.5 μM) and 4 NaCl concentrations (0, 50, 100, and 200 mM). Antibacterial activity of 3NI against H. pylori started at concentrations as low as 2.5 μM in the presence of at least 200 mM NaCl.
Substance,antimicrobial activity at high NaCl concentrations [1],also measured
"ELDRIC^1GYGTARC^2RKK-C^3RSQEYRIGRC^4PNTYAC^5C^6LRK (bicyclic or more) [HBD4, human beta-defensin 4, purchased from Peptides International]",reduced by high NaCl concentrations,
"GIGDPVTC^1LKSGAIC^2HPVFC^3PRRYKQIGTC^4GLPGTKC^5C^6KKP (bicyclic or more) [HBD2, human beta-defensin 2, purchased from Peptides International]",reduced by high NaCl concentrations,
"GIINTLQKYYC^1RVRGGRC^2AVLSC^3LPKEEQIGKC^4STRGRKC^5C^6RRKK (bicyclic or more) [HBD3, human beta-defensin 3, purchased from Peptides International]",still active up to 150 mM NaCl concentrations,
"HBD1: human beta-defensin 1, constitutively synthesized; only mentioned in background, not tested here (DHYNCVSSGGQCLYSACPIFTKIQGTCYRGKAKCCK; not fully specified; ends and bridges not checked; UniProt P60022 33-68, looked up)",reduced by high NaCl concentrations,
KYYC^1RVRGGRC^2AVLSC^3PIFTKIQGTC^4STRGRKC^5C^6RRKK (bicyclic or more) [3NI],,"resistance of killing activity to high NaCl concentrations ([1]; earlier work of the authors): resistant to high NaCl concentrations; antibacterial activity against H. pylori in contrast to wild-type peptides ([2]; 2.5 and 12.5 μM, 0, 50, 100 and 200 mM NaCl (Fig 4 title)): increased antibacterial activity; concentration at which antibacterial activity against H. pylori started ([2]; in the presence of at least 200 mM NaCl, CFU assay, peptides tested at 2.5 and 12.5 μM, triplicate): 2.5 µM"
QKYYC^1RVRGGRC^2AVLSC^3LPKEEQIGKC^4STRGRKC^5C^6RRKK (bicyclic or more) [3N],,"antibacterial activity against H. pylori at 12.5 μM ([2]; 12.5 μM peptide, 0, 50, 100 and 200 mM NaCl, 3 independent experiments (Fig 4)): little antibacterial effect"
